In US9346797B1, “2-amino 6-(difluoromethyl)-5,5-difluoro-6-phenyl-3,4,5,6-tetrahydropyridines as BACE1 inhibitors” (H. Lundbeck A/S, priority 2014, dated 2016):
pKi: −log10 of the molar value.

Assays:
human BACE1 = human BACE1 (Homo sapiens (Human), UniProt P56817); assay: BACE1 binding assay (SPA-based radioligand binding); details: pH 4.5, Ki calculated from IC50
Procedure: The binding assay was performed as SPA-based assay using a biotinylated form of human BACE1 recombinantly expressed and subsequently purified from Freestyle HEK293 cells. The binding assay was run in a 50 mM sodium acetate buffer, pH 4.5 containing 50 mM NaCl and 0.03% Tween-20 in white clear bottom 384 plates (Corning #3653). 10 nM (final concentration) radioligand ([^3H]—N-((1S,2R)-1-benzyl-3-cyclopropylamino-2-hydroxy-propyl)-5-(methanesulfonyl-methyl-amino)-N—((R)-1-phenyl-ethyl)-isophthalamide) (TRQ11569 purchased from GE Healthcare) was mixed with test compound at a given concentration, 6 nM (final concentration) human BACE1 and 25 μg Streptavidin coated PVT core SPA beads (RPNQ0007, GE Healthcare Life Sciences) in a total volume of 40 μl. Several concentrations of each test compound were tested in the assay for IC50 determination. The plates were incubated for one hour at room temperature and counted in a Wallac Trilux counter. Total and non-specific binding were determined using buffer and 1 μM (final concentration) of the high affinity BACE1 reference inhibitor (S)-6-[3-chloro-5-(5-prop-1-ynyl-pyridin-3-yl)-thiophen-2-yl]-2-imino-3,6-dimethyl-tetrahydro-pyrimidin-4-one, respectively. For each test compound, a IC50 value (the concentration mediating 50% inhibition of the specific binding of the radioligand) was determined from concentration-response curve and used to calculate the Ki from the equation Ki=IC50/(1+L/Kd), where L and Kd are the final concentration of the radioligand used in the assay and the dissociation constant of the radioligand, respectively. The Kd of the radioligand was determined from saturation binding experiments.

P-gp (MDR1) = assay: MDCK-MDR1 assay (permeability/efflux); assay type: in vitro ADME; details: dog, Papp BA/Papp AB, 60-minute incubation, Pgp substrate when ≧2
Procedure: The permeability of the test compounds was assessed in MDCK-MDR1 cells that were cultured to confluency (4-6 days) in a 96 transwell plate. Test compounds were diluted with the transport buffer (HBSS+1% BSA) to a concentration of 0.5 μM and applied to the apical or basolateral side of the cell monolayer. Permeation of the test compounds from A to B direction or B to A direction was determined in triplicate over a 60-minute incubation time at 37° C. and 5% CO2 with a relative humidity of 95%. Test compounds were quantified by LC-MS/MS analysis based on the peaks area ratios of analyte/IS in both the receiver and donor wells of the transwell plate.
The apparent permeability coefficient Papp (cm/s) was calculated using the equation: Papp=(dCr/dt)×Vr/(A×C0)
Where dCr/dt is the cumulative concentration of compound in the receiver chamber as a function of time (μM/s); Vr is the solution volume in the receiver chamber (0.05 mL on the apical side; 0.25 mL on the basolateral side); A is the surface area for the transport, i.e. 0.0804 cm^2 for the area of the monolayer; CO is the initial concentration in the donor chamber (μM).
Compounds are classified Pgp substrates when efflux ratio (Papp BA/Papp AB) is ≧2.

Sequence of human BACE1 (P56817 46-501): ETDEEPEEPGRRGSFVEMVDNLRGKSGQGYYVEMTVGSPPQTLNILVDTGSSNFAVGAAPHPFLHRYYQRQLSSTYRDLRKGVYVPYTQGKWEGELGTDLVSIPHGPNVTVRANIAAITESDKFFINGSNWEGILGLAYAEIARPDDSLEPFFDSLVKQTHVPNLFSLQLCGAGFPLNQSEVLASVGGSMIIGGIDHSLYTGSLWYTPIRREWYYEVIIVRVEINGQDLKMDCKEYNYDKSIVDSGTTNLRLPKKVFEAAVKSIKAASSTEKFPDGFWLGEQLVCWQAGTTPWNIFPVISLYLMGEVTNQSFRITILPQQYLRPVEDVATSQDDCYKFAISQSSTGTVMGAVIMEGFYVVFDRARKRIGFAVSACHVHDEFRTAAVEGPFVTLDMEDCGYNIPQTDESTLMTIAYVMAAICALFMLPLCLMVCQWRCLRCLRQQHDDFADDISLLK

| SMILES | pKi (human BACE1) | efflux ratio at 60 min, 0.5 μM (P-gp (MDR1)) |
| --- | --- | --- |
| Cc1nc(C(=O)Nc2ccc(F)c([C@@]3(C(F)F)N=C(N)CCC3(F)F)c2)co1 [Compound 4, (S)—N-(3-(6-amino-2-(difluoromethyl)-3,3-difluoro-2,3,4,5-tetrahydropyridin-2-yl)-4-fluorophenyl)-2-methyloxazole-4-carboxamide] | 7.70 | 4.01 |
| COc1cnc(C(=O)Nc2ccc(F)c([C@@]3(C(F)F)N=C(N)CCC3(F)F)c2)nc1 [Compound 9, (S)—N-(3-(6-amino-2-(difluoromethyl)-3,3-difluoro-2,3,4,5-tetrahydropyridin-2-yl)-4-fluorophenyl)-5-methoxypyrimidine-2-carboxamide] | 8.16 | 11 |
| Cc1csc(C(=O)Nc2ccc(F)c([C@@]3(C(F)F)N=C(N)CCC3(F)F)c2)n1 [Compound 8, (S)—N-(3-(6-amino-2-(difluoromethyl)-3,3-difluoro-2,3,4,5-tetrahydropyridin-2-yl)-4-fluoro-phenyl)-4-methylthiazole-2-carboxamide] | 7.15 | 0.92 |
| NC1=N[C@@](c2cc(NC(=O)c3cnc(C(F)F)cn3)ccc2F)(C(F)F)C(F)(F)CC1 [Compound 6, (S)—N-(3-(6-amino-2-(difluoromethyl)-3,3-difluoro-2,3,4,5-tetrahydropyridin-2-yl)-4-fluorophenyl)-5-(difluoromethyl)pyrazine-2-carboxamide] | 7.70 | 1.36 |
| NC1=N[C@@](c2cc(NC(=O)c3ccc(F)cn3)ccc2F)(C(F)F)C(F)(F)CC1 [Compound 2, (S)—N-(3-(6-amino-2-(difluoromethyl)-3,3-difluoro-2,3,4,5-tetrahydropyridin-2-yl)-4-fluorophenyl)-5-fluoropicolinamide] | 7.64 | 1.75 |
| NC1=N[C@@](c2cc(NC(=O)c3ccc(Br)cn3)ccc2F)(C(F)F)C(F)(F)CC1 [Compound 12, (S)—N-(3-(6-amino-2-(difluoromethyl)-3,3-difluoro-2,3,4,5-tetrahydropyridin-2-yl)-4-fluorophenyl)-5-bromopicolinamide] | 8.21 | 1.31 |
| COc1cnc(C(=O)Nc2ccc(F)c([C@@]3(C(F)F)N=C(N)CCC3(F)F)c2)c(C)n1 [Compound 10, (S)—N-(3-(6-amino-2-(difluoromethyl)-3,3-difluoro-2,3,4,5-tetrahydropyridin-2-yl)-4-fluorophenyl)-5-methoxy-3-methylpyrazine-2-carboxamide] | 7.80 | 0.98 |
| NC1=N[C@@](c2cc(NC(=O)c3ccc(Cl)cn3)ccc2F)(C(F)F)C(F)(F)CC1 [Compound 1, (S)—N-(3-(6-amino-2-(difluoromethyl)-3,3-difluoro-2,3,4,5-tetrahydropyridin-2-yl)-4-fluorophenyl)-5-chloropicolinamide] | 7.74 | 1.16 |
| Cc1cc(C#N)cnc1C(=O)Nc1ccc(F)c([C@@]2(C(F)F)N=C(N)CCC2(F)F)c1 [Compound 11, (S)—N-(3-(6-amino-2-(difluoromethyl)-3,3-difluoro-2,3,4,5-tetrahydropyridin-2-yl)-4-fluorophenyl)-5-cyano-3-methylpicolinamide] | 8.11 | 2.68 |
| N#Cc1ccc(C(=O)Nc2ccc(F)c([C@@]3(C(F)F)N=C(N)CCC3(F)F)c2)nc1 [Compound 7, (S)—N-(3-(6-amino-2-(difluoromethyl)-3,3-difluoro-2,3,4,5-tetrahydropyridin-2-yl)-4-fluorophenyl)-5-cyanopicolinamide] | 8.13 | 2.43 |
